Tests used:
[1] = molecular target: T1, urotensin II receptor on TE-671 rhabdomyosarcoma cells (Homo sapiens, UniProt Q9UKP6); experiment: Inhibition of human [125I]-urotensin II binding to a rhabdomyosarcoma cell line (whole cell binding); details: TE-671 whole cells, 20 pM human [125I]urotensin II, 4 h at 20° C.
T1 construct: host or cells: TE-671 rhabdomyosarcoma cells
T1 sequence (Q9UKP6 1-389): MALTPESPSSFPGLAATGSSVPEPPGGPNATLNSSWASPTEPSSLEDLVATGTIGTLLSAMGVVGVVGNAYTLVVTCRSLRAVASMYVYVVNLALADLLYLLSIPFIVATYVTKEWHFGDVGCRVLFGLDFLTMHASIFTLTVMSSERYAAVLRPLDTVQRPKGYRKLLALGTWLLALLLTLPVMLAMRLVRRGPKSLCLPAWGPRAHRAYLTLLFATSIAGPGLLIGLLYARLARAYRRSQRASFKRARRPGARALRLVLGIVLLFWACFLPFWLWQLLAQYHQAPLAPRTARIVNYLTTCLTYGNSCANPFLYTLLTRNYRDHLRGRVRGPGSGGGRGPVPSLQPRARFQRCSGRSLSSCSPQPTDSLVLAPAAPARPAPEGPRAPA
Description: 1) Inhibition of Human [125I]-urotensin II Binding to a Rhabdomyosarcoma Cell Line
Whole cell binding of human [^125I]-urotensin II is performed using human-derived TE-671 rhabdomyosarcoma cells (Deutsche Sammlung von Mikroorganismen und Zellkulturen, cell line #ACC-263), by methods adapted from a whole cell endothelin binding assay (Breu V et al., In vitro characterization of Ro-46-2005, a novel synthetic non-peptide antagonist of ETA and ETB receptors. FEBS Lett. 1993, 334, 210-214).
The assay is performed in 250 μL Dubecco's modified eagle medium, pH 7.4 (GIBCO BRL, CatNo 31885-023), including 25 mM HEPES (Fluka, CatNo 05473), 1.0% DMSO (Fluka, CatNo 41644) and 0.5% (w/v) BSA Fraction V (Fluka, CatNo 05473) in polypropylene microtiter plates (Nunc, CatNo 442587). 300,000 suspended cells are incubated with gentle shaking for 4 h at 20° C. with 20 pM human [^125I]Urotensin II (Anawa Trading SA, Wangen, Switzerland, 2130 Ci/mmol) and increasing concentrations of unlabeled antagonist. Minimum and maximum binding are derived from samples with and without 100 nM unlabelled U-II, respectively. After the 4 h incubation period, the cells are filtered onto GF/C filter plates (Packard, CatNo 6005174). The filter plates are dried, and then 50 μL scintillation cocktail (Packard, MicroScint 20, CatNo 6013621) is added to each well. The filter plates are counted in a microplate counter (Packard Bioscience, TopCount NXT).
All test compounds are dissolved and diluted in 100% DMSO. A […] dilution into assay buffer is performed prior to addition to the assay. […] Specific binding is the difference between maximum binding and minimum binding, as described above.

isolated rat aortic arch = details: for pD2′ (functional inhibitory potency): Wistar rat aortic arch rings, 20 min incubation with test compound before cumulative doses of human urotensin II
Description: 2) Inhibition of Human Urotensin II-Induced Contractions of Isolated Rat Aortic Arch Adult Wistar rats are anesthetized (CO2 inhalation) and exsanguinated. The aortic arch is excised, dissected and cut in 3 rings of 3 mm, ring #1 being the more proximal and ring #3 being the more distal. Each ring is suspended in a 10 mL isolated organ bath filled with Krebs-Henseleit solution (in mM; NaCl 115, KCl 4.7, MgSO4 1.2, KH2PO4 1.5, NaHCO3 25, CaCl2 2.5, glucose 10; pH 7.4) kept at 37° C. and gassed with 95% O2 and 5% CO2. The rings are connected to force transducers and isometric tension is recorded (EMKA Technologies SA, Paris, France). The rings are stretched to a resting tension of 3 g. […] The functional inhibitory potency of the test compound is assessed by calculating the pD2′ according to the formula: pD2′=Log (CR-1)-Log [B], where CR is the ratio of the maximal effect without/with antagonist and [B] the concentration of the antagonist.

SMILES	IC50 [1] [nM]	pD2′ (functional inhibitory potency) (isolated rat aortic arch)	EC50 (isolated rat aortic arch) [nM]
COc1cc2c(cc1OC)C(CCc1cc(F)ccc1F)N(CCNC(=O)Nc1cc(C)nc3ccccc13)CC2 (stereo not shown) [Example 20, 1-(2-{1-[2-(2,5-Difluoro-phenyl)-ethyl]-6,7-dimethoxy-3,4-dihydro-1H-isoquinolin-2-yl}-ethyl)-3-(2-methyl-quinolin-4-yl)-urea]	67	–	–
COc1ccc(CCC2c3cc(OC)c(OC)cc3CCN2CCNC(=O)Nc2cc(C)nc3ccccc23)cc1OC (stereo not shown) [Example 22, 1-(2-{1-[2-(3,4-Dimethoxy-phenyl)-ethyl]-6,7-dimethoxy-3,4-dihydro-1H-isoquinolin-2-yl}-ethyl)-3-(2-methyl-quinolin-4-yl)-urea]	63	–	–
COc1cc2c(cc1OC)C(CCc1ccccc1)N(CCNC(=O)Nc1cc(C)nc3ccccc13)CC2 (stereo not shown) [Example 29, 1-[2-(6,7-Dimethoxy-1-phenethyl-3,4-dihydro-1H-isoquinolin-2-yl)-ethyl]-3-(2-methyl-quinolin-4-yl)-urea]	125	5.23	–
COc1cc2c(c(OC)c1)C(Cc1ccc(OC)c(OC)c1)N(CCNC(=O)Nc1cc(C)nc3ccccc13)CC2 (stereo not shown) [Example 58, 1-{2-[1-(3,4-Dimethoxy-benzyl)-6,8-dimethoxy-3,4-dihydro-1H-isoquinolin-2-yl]-ethyl}-3-(2-methyl-quinolin-4-yl)-urea]	550	–	–
COc1ccc(CC2c3c(OC)ccc(OC)c3CCN2CCNC(=O)Nc2ccnc3ccccc23)cc1OC (stereo not shown) [Example 93, 1-{2-[1-(3,4-Dimethoxy-benzyl)-5,8-dimethoxy-3,4-dihydro-1H-isoquinolin-2-yl]-ethyl}-3-quinolin-4-yl-urea]	–	5.45	–
CC(C)[C@H](NC(=O)[C@@H]1CSSC[C@H](NC(=O)[C@H](CC(=O)O)NC(=O)[C@@H]2CCCN2C(=O)[C@@H](NC(=O)[C@@H](N)CCC(=O)O)[C@@H](C)O)C(=O)N[C@@H](Cc2ccccc2)C(=O)N[C@@H](Cc2c[nH]c3ccccc23)C(=O)N[C@@H](CCCCN)C(=O)N[C@@H](Cc2ccc(O)cc2)C(=O)N1)C(=O)O [human U-II, reference compound]	–	–	1.09 ± 0.1

From patent US6815451B2, “1,2,3,4-Tetrahydroisoquinolines derivatives as urotensin II receptor antagonists” (Actelion Pharmaceuticals Ltd., priority 2001, dated 2004)
